This is an account of results in patent US5945422A, “N-oxides of amino containing pyrido [2,3-D] pyrimidines” (Warner-Lambert Company, priority 1998, dated 1999).

Common to all, as to type: biochemical
The target in one assay is T1, C-src kinase (Homo sapiens, UniProt P12931).
T1 construct: made in house; host or cells: baculovirus infected insect cells
The assay is described as follows: C-src kinase assay. As to conditions: poly GluTyr substrate, 10 min, room temperature; read-out: C-src TK inhibition, IC50. The method, then:
The antibody, covalently linked to 0.65-μm latex beads, is added to a suspension of insect cell lysis buffer comprised of 150 mM NaCl, 50 mM Tris pH 7.5, 1 mM DTT, 1% NP-40, 2 mM EGTA, 1 mM sodium vanadate, 1 mM PMSF, 1 μg/mL each of leupeptin, pepstatin, and aprotinin. […] At the end of the lysate incubation, the beads are rinsed 3 times in lysis buffer, resuspended in lysis buffer containing 10% glycerol, and frozen. These latex beads are thawed, rinsed 3 times in assay buffer which is comprised of 40 mM tris pH 7.5, 5 mM MgCl2, and suspended in the same buffer. […] The reaction is started at room temperature by addition of the ATP and quenched 10 minutes later by the addition of 125 μL of 30% TCA, 0.1M sodium pyrophosphate for 5 minutes on ice. The plate is then filtered and the wells washed with two 250-μL aliquots of 15% TCA, 0.1M pyrophosphate. The filters are punched, counted in a liquid scintillation counter, and the data examined for inhibitory activity in comparison to a known inhibitor such as erbstatin. The method is described more fully in J. Med. Chem., 37:598-609 (1994).

Assay [1] concerns the target T2, mouse PDGF-β receptor tyrosine kinase (Mus musculus, UniProt P05622).
T2 construct: amplify a fragment of DNA that codes for the intracellular tyrosine kinase domain; made in house; host or cells: SF9 insect cells, baculovirus (cell lysate used)
Put plainly: PDGF receptor tyrosine kinase assay (PDGFr-TK). The settings on record: 10 min at 25° C., glutamate-tyrosine co-polymer substrate; read-out: PDGFr-TK inhibition, IC50. As to the method: SF9 insect cells were infected with the virus to overexpress the protein, and the cell lysate was used for the assay. […] The reaction was terminated by the addition of 100 μL of 30% trichloroacetic acid (TCA) containing 20 mM sodium pyrophosphate and precipitation of material onto glass fiber filter mats (Wallac). […] Nonspecific activity was defined as radioactivity retained on the filters following incubation of samples with buffer alone (no enzyme). Specific enzymatic activity was defined as total activity (enzyme plus buffer) minus nonspecific activity.

The target of assay [2] is T3, human FGF-1 (flg) receptor tyrosine kinase (Homo sapiens, UniProt P11362).
T3 construct: amplify a fragment of DNA that codes for the intracellular tyrosine kinase domain; made in house; host or cells: SF9 insect cells, baculovirus (cell lysate used)
Put plainly: FGF receptor tyrosine kinase assay (FGFr-TK). The settings on record: 10 min at 25° C., glutamate-tyrosine co-polymer substrate; read-out: FGFr-TK inhibition, IC50. The source says: PDGF and FGF Receptor Tyrosine Kinase Assays
Full length cDNAs for the mouse PDGF-β and human FGF-1 (flg) receptor tyrosine kinases were obtained from J. Escobedo and prepared as described in J. Biol. Chem., 262:1482-1487 […], and PCR primers were designed to amplify a fragment of DNA that codes for the intracellular tyrosine kinase domain. The fragment was melded into a baculovirus vector, cotransfected with AcMNPV DNA, and the recombinant virus isolated. SF9 insect cells were infected with the virus to overexpress the protein, and the cell lysate was used for the assay. […] Briefly, to each well was added 82.5 μL of incubation buffer containing 25 mM Hepes (pH 7.0), 150 mM NaCl, 0.1% Triton X-100, 0.2 mM PMSF, 0.2 mM Na3 VO4, 10 mM MnCl2, and 750 μg/mL of Poly (4:1) glutamate-tyrosine followed by 2.5 μL of inhibitor and 5 μL of enzyme lysate (7.5 μg/μL FGF-TK or 6.0 μg/μL PDGF-TK) to initiate the reaction. Following a 10 minute incubation at 25° C., 10 μL of γ^32 P-ATP (0.4 μCi plus 50 μM ATP) was added to each well and samples were incubated for an additional 10 minutes at 25° C. […] Nonspecific activity was defined as radioactivity retained on the filters following incubation of samples with buffer alone (no enzyme). […]

A word on the IC50: it is the point on the concentration scale where inhibition reaches its midpoint.

Each structure is given as a SMILES string.

T1 sequence (P12931 whole entry): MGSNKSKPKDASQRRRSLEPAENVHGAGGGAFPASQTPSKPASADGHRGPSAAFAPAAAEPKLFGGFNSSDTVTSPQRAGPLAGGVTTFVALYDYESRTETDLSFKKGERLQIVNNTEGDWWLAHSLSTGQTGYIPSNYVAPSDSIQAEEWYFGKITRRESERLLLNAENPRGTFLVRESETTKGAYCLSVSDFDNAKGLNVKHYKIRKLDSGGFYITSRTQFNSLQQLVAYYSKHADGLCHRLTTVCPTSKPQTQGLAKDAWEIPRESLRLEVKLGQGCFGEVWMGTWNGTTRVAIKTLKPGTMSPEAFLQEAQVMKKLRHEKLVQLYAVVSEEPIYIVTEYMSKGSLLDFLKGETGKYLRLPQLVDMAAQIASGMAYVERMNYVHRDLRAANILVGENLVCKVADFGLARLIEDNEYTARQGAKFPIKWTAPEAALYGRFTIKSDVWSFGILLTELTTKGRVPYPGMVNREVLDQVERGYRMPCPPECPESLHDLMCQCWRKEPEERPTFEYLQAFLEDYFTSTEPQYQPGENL
T2 sequence (P05622 599-961 limits assumed): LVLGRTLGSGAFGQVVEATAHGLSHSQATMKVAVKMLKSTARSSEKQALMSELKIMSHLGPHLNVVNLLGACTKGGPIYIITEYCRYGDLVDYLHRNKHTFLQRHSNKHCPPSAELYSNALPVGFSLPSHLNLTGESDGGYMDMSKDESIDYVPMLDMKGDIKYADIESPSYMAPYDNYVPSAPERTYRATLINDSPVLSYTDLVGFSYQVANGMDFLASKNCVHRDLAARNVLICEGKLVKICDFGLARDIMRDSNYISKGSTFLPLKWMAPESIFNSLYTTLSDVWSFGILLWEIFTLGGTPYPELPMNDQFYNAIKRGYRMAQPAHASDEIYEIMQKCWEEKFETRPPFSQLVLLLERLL
T3 sequence (P11362 478-767 limits assumed): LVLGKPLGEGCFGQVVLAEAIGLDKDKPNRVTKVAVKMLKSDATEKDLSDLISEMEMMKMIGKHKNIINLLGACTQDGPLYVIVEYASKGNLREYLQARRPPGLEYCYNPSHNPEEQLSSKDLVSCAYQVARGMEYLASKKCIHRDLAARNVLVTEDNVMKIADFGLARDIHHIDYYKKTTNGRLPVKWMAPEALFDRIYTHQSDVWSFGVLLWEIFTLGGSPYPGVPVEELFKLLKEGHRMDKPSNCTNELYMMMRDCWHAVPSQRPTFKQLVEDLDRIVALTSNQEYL

For `CC[N+]([O-])(CC)CCOc1ccc(Nc2ncc3cc(-c4c(Cl)cccc4Cl)c(=O)n(C)c3n2)cc1` [Example 43, 6-(2,6-Dichlorophenyl)-2-[4-[2-(diethylamino)ethoxyl-thenyl]aminol-8-methyl-pyridor2,3-d]pyrimidin-7 (8H)-one, N^ω -oxide], the IC50 on C-src kinase was found to be 15 nM; in assay [1], 70 nM; in assay [2] it was 63 nM.
